From ChEMBL document CHEMBL1201862, “PubChem BioAssay data set” (2004)
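In this assay, cells in 96-well plates receive the compound at five concentrations for 48 hours. Endpoints are linearly interpolated between the surrounding concentrations. GI50 = concentration required for 50% inhibition of growth.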 The source made the active and inactive calls. Rule as the data show it: active = GI50 up to about 1.1 µM and inactive = higher.

Key:
Assay in all cases: growth of human tumour cells (NCI), 48 h
DLD-1 = test system: DLD-1
KM-20L2 = test system: KM-20L2
LXFL 529 = test system: LXFL 529
M19-MEL = test system: M19-MEL
RXF 631 = test system: RXF 631
XF498 = test system: XF498
BT-549 = test system: BT-549
Hs-578T = test system: Hs-578T
SNB-78 = test system: SNB-78

Measured: GI50

NC1CC(n2ccc(=O)[nH]c2=O)OC1C(O)CO (centres undefined)
inactive: DLD-1 > 100 µM | KM-20L2 > 100 µM | LXFL 529 > 100 µM | M19-MEL > 100 µM | RXF 631 > 100 µM | XF498 > 100 µM

O=C(O)CN(CC(=O)O)Cc1cc(C#Cc2ccc(C#Cc3ccccc3)cc2)cc(CN(CC(=O)O)CC(=O)O)n1
inactive: BT-549 12.3 µM | DLD-1 8.53 µM | Hs-578T 46.8 µM | KM-20L2 17 µM | LXFL 529 27.2 µM | M19-MEL 17.5 µM | SNB-78 44.3 µM | XF498 20.5 µM

NCC(=O)OCN1C(=O)C2C3C=CC(C2C1=O)C1C2C(=O)N(COC(=O)CN)C(=O)C2C31 (centres undefined)
inactive: DLD-1 24.3 µM | KM-20L2 24.3 µM | LXFL 529 22.7 µM | M19-MEL 24.8 µM | SNB-78 42 µM | XF498 17.9 µM

CCCCc1c2c(nc3c1CCc1cc4c(nc1-3)-c1nc3c(c(CCCC)c1CC4)CCC/C3=C\c1ccccc1)/C(=C/c1ccccc1)CCC2
inactive: DLD-1 > 100 µM | KM-20L2 > 100 µM | LXFL 529 30.8 µM | M19-MEL > 100 µM | SNB-78 39.4 µM | XF498 32.5 µM

CC(=O)OC1=C2CC[C@@H]3C(CC[C@@]4(C)C3CC[C@@H]4OC(C)=O)[C@@]2(C)CC(C#N)C1=O (some centres undefined)
inactive: DLD-1 9.82 µM | KM-20L2 27.7 µM | LXFL 529 30 µM | SNB-78 26.8 µM | XF498 18.6 µM

N#CC12CCC(O)C(CC1)C2=O (centres undefined)
inactive: DLD-1 47.3 µM | KM-20L2 > 100 µM | LXFL 529 > 10 µM | M19-MEL > 100 µM | RXF 631 > 100 µM | SNB-78 > 100 µM | XF498 > 100 µM

COc1cc2c(cc1OC)C(CC1=C(c3ccccc3)CN3CCc4cc(OC)c(OC)cc4C3C1)NCC2 (centres undefined)
inactive: DLD-1 19.1 µM | KM-20L2 13.4 µM | LXFL 529 16.6 µM | M19-MEL 17 µM | RXF 631 14.8 µM | SNB-78 15.6 µM | XF498 11.7 µM

COC(=O)C(Cc1nc2ccccc2nc1O)C(=O)C(=O)Nc1ccc(OC)cc1[N+](=O)[O-] (centres undefined)
inactive: KM-20L2 > 100 µM | LXFL 529 > 100 µM | M19-MEL > 100 µM | SNB-78 > 100 µM | XF498 > 100 µM

CN(C)C(=S)/N=c1\ssc(=S)n1Cc1cccs1
inactive: BT-549 11 µM | DLD-1 3.82 µM | Hs-578T 1.51 µM | KM-20L2 1.87 µM | LXFL 529 4.75 µM | M19-MEL 3.16 µM | SNB-78 6.68 µM

OCC1CC2C=CCC(C2)C1 (centres undefined)
inactive: DLD-1 > 100 µM | KM-20L2 > 100 µM | LXFL 529 > 100 µM | M19-MEL > 100 µM | SNB-78 > 100 µM | XF498 > 100 µM

CC(C)OP(=O)(OC(C)C)/C(=N/Nc1ccc([N+](=O)[O-])cc1)NCCN/C(=N\Nc1ccc([N+](=O)[O-])cc1)P(=O)(OC(C)C)OC(C)C
inactive: DLD-1 4.71 µM | KM-20L2 4.52 µM | LXFL 529 3.17 µM | M19-MEL 5.85 µM | XF498 3.18 µM

O=C1c2cnccc2Cc2cccc3c2N1c1ccccc1S3
inactive: DLD-1 29.2 µM | KM-20L2 17.6 µM | LXFL 529 27.5 µM | M19-MEL 28.9 µM | RXF 631 26.1 µM | XF498 15.1 µM

N#CC1(c2nc3ccccc3o2)C(=O)C(=O)N(c2ccc(Cl)c(Cl)c2)C(=O)C1=O
inactive: DLD-1 > 100 µM | KM-20L2 > 100 µM | LXFL 529 58.1 µM | SNB-78 > 100 µM | XF498 > 100 µM

COC(=O)C(=O)C1CCCCC(C2=NC3NN=C(N)N3C2=O)C1=O (centres undefined)
inactive: DLD-1 > 100 µM | KM-20L2 > 100 µM | LXFL 529 > 100 µM | M19-MEL > 100 µM | RXF 631 > 100 µM | XF498 > 100 µM

Cc1cccc(C)c1NC(=O)C(=O)CC(=O)CO
inactive: DLD-1 > 100 µM | KM-20L2 > 100 µM | LXFL 529 > 100 µM | M19-MEL > 100 µM | RXF 631 > 100 µM | SNB-78 > 100 µM

C[C@]12CCC[C@H](Cl)C1(O)C[C@H](C(=O)O)CC2 (some centres undefined)
inactive: DLD-1 > 100 µM | KM-20L2 > 100 µM | LXFL 529 > 100 µM | M19-MEL > 100 µM | SNB-78 > 100 µM | XF498 > 100 µM

CCOC(=O)C1(Br)C(c2ccccc2)NC(=O)N(C2OC(COC(=O)c3ccccc3)C(OC(=O)c3ccccc3)C2OC(=O)c2ccccc2)C1(C)Br (centres undefined)
inactive: DLD-1 36.4 µM | KM-20L2 37.9 µM | LXFL 529 21.6 µM | M19-MEL 28.4 µM | RXF 631 15.3 µM

COc1nc(NC2OCC(O)C(O)C2O)c(NC2OCC(O)C(O)C2O)c(=O)n1C (centres undefined)
inactive: DLD-1 > 100 µM | KM-20L2 > 100 µM | LXFL 529 > 100 µM | M19-MEL > 100 µM | SNB-78 > 100 µM | XF498 > 100 µM

Cc1c(Cl)ccc2c1NC(=O)C2(O)CC(=O)c1ccc(Cl)cc1 (centres undefined)
inactive: DLD-1 42.9 µM | KM-20L2 > 100 µM | LXFL 529 > 38.9 µM | M19-MEL 6.62 µM | RXF 631 71.1 µM | SNB-78 > 96.6 µM

CC(=O)Nc1ccc(/C=C/C(=O)c2sc(-n3nc(-c4ccccc4)cc3-c3ccccc3)nc2C)cc1
inactive: DLD-1 > 10 µM | KM-20L2 > 10 µM | LXFL 529 > 10 µM | M19-MEL > 10 µM | RXF 631 > 10 µM | SNB-78 > 10 µM

Cn1nc(-c2ccccc2)c2c(/C=C/c3ccccc3)onc2c1=O
inactive: DLD-1 78.9 µM | KM-20L2 > 100 µM | LXFL 529 > 100 µM | M19-MEL > 100 µM | RXF 631 73.3 µM | SNB-78 38.7 µM | XF498 26.8 µM

COc1cc(C)c(C)c(OC(=O)c2c(C)c(C)c(OC)c(C)c2OC)c1C
inactive: DLD-1 7.31 µM | KM-20L2 4.17 µM | LXFL 529 8.87 µM | M19-MEL 7.6 µM | RXF 631 10.3 µM | SNB-78 21.1 µM | XF498 12.2 µM

NC(CCC(=O)Nc1ccc(O)cc1)C(=O)O (centres undefined)
inactive: DLD-1 > 100 µM | KM-20L2 > 100 µM | LXFL 529 > 100 µM | SNB-78 > 100 µM | XF498 > 100 µM

Cc1cccc(C)c1N1C(=O)C(=O)C(c2nc3ccccc3s2)/C(=N/c2cccc3c(=O)[nH][nH]c(=O)c23)C1=O (centres undefined)
inactive: DLD-1 > 100 µM | KM-20L2 > 100 µM | LXFL 529 > 100 µM | M19-MEL > 100 µM | SNB-78 > 100 µM
